US8901313B2, “6,5-heterocyclic propargylic alcohol compounds and uses therefor” (Genentech, Inc., priority 2011, dated 2014)
Like-named read-outs stand apart in the source and are kept apart here.

Assays:
[1] = test system: NF-kB signaling through NIK in human embryonic kidney 293 cells; assay: 293-NIK NF-kB-Luciferase reporter assay; format: cell-based
In short: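 HEK293 cells stably carrying tetracycline-inducible NIK plus NF-kB (ELAM-1 element) firefly luciferase and constitutive TK-Renilla viability reporter. Compounds (0.2% DMSO) incubated 24 h with 1 ug/mL doxycycline; Dual Glo luminescence read, IC50 from firefly signal.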

[2] = test system: p52 (NF-kB2) nuclear translocation in HeLa cells; assay: NIK p52 Translocation Assay (non-classical NF-kB signaling); format: cell-based; settings: Homo sapiens
In short: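 HeLa cells in 10% FBS medium were exposed to compound (0.2% DMSO final) and stimulated with 100 ng/mL anti-lymphotoxin β receptor antibody for 5 h. Fixed cells were immunostained for p52 with DRAQ5 counterstain and imaged by high-content imaging. IC50 from nuclear/cytoplasmic p52 signal ratio vs concentration.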

[3] = test system: REL-A (p65) nuclear translocation in HeLa cells; assay: NIK RelA Translocation Assay (classical NF-kB signaling); format: cell-based; settings: Homo sapiens
Method: (2) A second set of cell assay was used to define the selectivity of NIK inhibitors toward inhibition of classical vs. non-classical NF-kB signaling and rely on quantification of the nuclear translocation of p52 (NF-kB2) and REL-A (p65) using high content cellular imaging. For the p52 (non-classical NF-kB signaling) nuclear translocation assay, HeLa cells were treated with different concentrations of compounds (0.2% DMSO final) in medium containing 10% fetal bovine serum and then stimulated with 100 ng/mL of an anti-lymphotoxin beta receptor antibody (R&D Systems) for 5 hours. In the REL-A nuclear translocation assay, HeLa cells were incubated with compounds (0.2% DMSO final) for 4.5 hours in medium containing 10% fetal bovine serum before stimulating them with 10 ng/mL tumor necrosis factor (TNF)-α (R&D Systems) for 30 minutes. Cells were fixed with 4% paraformaldehyde, permeabilized by adding 0.1% Triton X-100 in phosphate buffered saline, and then incubated with either 2 ug/mL anti-p52 antibody (Millipore) or 400 ng/mL anti-REL-A (p65) antibody (Santa Cruz Biotechnology). Finally, the cells were incubated with an Alexa488-labeled secondary antibody (Invitrogen) and DRAQ5 DNA stain (Biostatus). Imaging was carried out using an Opera reader (Perkin Elmer) and data are analyzed with the aid of Acapella software (Perkin Elmer). The p52 or REL-A translocation into the nucleus was quantified by the ratio of the nuclear to cytoplasmic signal intensity. The concentration of inhibitor required for 50% inhibition (IC50 values) in these cell assays were derived from the plots of signal vs. inhibitor concentration. The compounds in listed in Table 1 have the corresponding inhibitory value (IC50 in micromolar) for NIK p52 Translocation Assay (values for compounds are presented in the same order as found in Table 1, and “na” means the data for this assay is to be determined): 0.326, 0.33, na, na, na, 0.218, 0.07, na, na, na, 0.129, 7.6, 0.077, 3.4, na, 0.518, na, 0.059, 0.514, 0.127, na, na, 0.010, na, na, 0.313, 0.275, na, 0.0727, na, na, na, na, na, na, 0.194, na, 6.4, 0.22, 0.346, na, na, na and na, na, na, na, na, na, 0.447, na, 0.089, 0.479, 0.489, 0.243, 0.747, 1, na, 1.9, 0.552, 2.1, na. na, na, na, na and na.
The compounds in listed in Table 1 has the corresponding inhibitory value (IC50 in micromolar) for NIK RelA Translocation Assay (values for compounds are presented in the same order as found in Table 1): 0.326, 0.33, na, na, na, 0.218, 0.07, na, na, na, na, na, 0.129, 7.6, 0.077, 3.4, na, 0.518, na, 0.059, 0.514, 0.127, na, na, 0.010, na, na, 0.313, 0.275, na, na, 0.0727, na, na, na, na, na, na, 0.194, na, 6.4, 0.22, 0.346, na, na, na, na, na, na, na, na, na, 0.447, na, 0.089, 0.479, 0.489, 0.243, 0.747, 1, na, 1.9, 0.552, 2.1, na, na, na, na, na and na.

[4] = test system: human embryonic kidney 293 cells; assay: 293-NIK TK Renilla Luciferase reporter (general measure of cell viability); format: cell-based
Text: (1) The first assay was used to profile whether a test compound can inhibit the NF-kB signally through NIK inhibition without affecting cell viability. In this assay, human embryonic kidney 293 cells was stably transfected with a tetracycline-inducible NIK DNA construct containing a cytomegalovirus promoter plus two reporter DNA constructs. One reporter encoded firefly luciferase under the control of three repeats of an NF-kB response element from the ELAM-1 gene and reflects the level of NIK activity in the cells, whereas the other reporter constitutively expressed Renilla luciferase under the control of the herpes simplex virus thymidine kinase promoter and served as a general measure of cell viability. Cells were incubated with different concentrations of compounds (0.2% DMSO final) in medium containing 1 ug/mL doxycycline and 10% tet-system approved fetal bovine serum (Clontech) for 24 hours, after which the reporters' signals were detected using the Dual Glo luciferase detection system (Promega) according to the vendor's protocol. The compounds listed in Table 1 have the corresponding inhibitory value (IC50 in micromolar) for 293-NIK NF-kB-Luciferase activity (values for compounds are presented in the same order as found in Table 1): na, 0.059, na, na, na, 0.105, 0.027, na, 20, 1.2, na, 1.8, 0.0231, 0.879, 0.0361, 0.582, na, 0.142, na, 0.403, 0.059, 0.0331, na, na, 0.0573, 1.5, na, na, 0.0722, na, na, 0.589, 12.7, 3.7, 14.9, na, 0.707, 1, 0.0311, 0.332, 0.309, 0.0142, 0.051, 2.8, 0.129, na, na, 1.5, na, na, na, 1.3, 0.062, 20, 0.31, 0.104, 0.091, 0.037, 0.085, 0.279, na, 0.305, 0.064, 0.332, 0.133, 0.168, 0.217, 0.553, na and na.
The compounds in listed in Table 1 have the corresponding inhibitory value (IC50 in micromolar) for 293-NIK TK Renilla Luciferase activity: (values for compounds are presented in the same order as found in Table 1): 6.4, 3.6, 20, na, 1.6, 9.3, 18.5, na, na, 2.6, na, na, na, na, na, na, na, na, na, na, na, na, na, na, na, na, na, na, na, na, na, na, na, na, na, na, na, na, na, na, na, na, na, na, na, na, na, >20, na, na, na, 20, >20, 17, 1.3, 15.6, 0.967, 2.7, 11.2, 5.1, na, 20, 20, 20, 20, 20, 17.6, 20, na and na.

[5] = target: T1, nuclear factor-kappa B (NF-kB)-inducing kinase (NIK) (Homo sapiens, UniProt Q99558); assay: NIK Enzyme Inhibition Assay (Transcreener ADP assay); format: biochemical
T1 construct: made in house; host or cells: baculovirus-infected insect cells
T1 sequence (Q99558 whole entry): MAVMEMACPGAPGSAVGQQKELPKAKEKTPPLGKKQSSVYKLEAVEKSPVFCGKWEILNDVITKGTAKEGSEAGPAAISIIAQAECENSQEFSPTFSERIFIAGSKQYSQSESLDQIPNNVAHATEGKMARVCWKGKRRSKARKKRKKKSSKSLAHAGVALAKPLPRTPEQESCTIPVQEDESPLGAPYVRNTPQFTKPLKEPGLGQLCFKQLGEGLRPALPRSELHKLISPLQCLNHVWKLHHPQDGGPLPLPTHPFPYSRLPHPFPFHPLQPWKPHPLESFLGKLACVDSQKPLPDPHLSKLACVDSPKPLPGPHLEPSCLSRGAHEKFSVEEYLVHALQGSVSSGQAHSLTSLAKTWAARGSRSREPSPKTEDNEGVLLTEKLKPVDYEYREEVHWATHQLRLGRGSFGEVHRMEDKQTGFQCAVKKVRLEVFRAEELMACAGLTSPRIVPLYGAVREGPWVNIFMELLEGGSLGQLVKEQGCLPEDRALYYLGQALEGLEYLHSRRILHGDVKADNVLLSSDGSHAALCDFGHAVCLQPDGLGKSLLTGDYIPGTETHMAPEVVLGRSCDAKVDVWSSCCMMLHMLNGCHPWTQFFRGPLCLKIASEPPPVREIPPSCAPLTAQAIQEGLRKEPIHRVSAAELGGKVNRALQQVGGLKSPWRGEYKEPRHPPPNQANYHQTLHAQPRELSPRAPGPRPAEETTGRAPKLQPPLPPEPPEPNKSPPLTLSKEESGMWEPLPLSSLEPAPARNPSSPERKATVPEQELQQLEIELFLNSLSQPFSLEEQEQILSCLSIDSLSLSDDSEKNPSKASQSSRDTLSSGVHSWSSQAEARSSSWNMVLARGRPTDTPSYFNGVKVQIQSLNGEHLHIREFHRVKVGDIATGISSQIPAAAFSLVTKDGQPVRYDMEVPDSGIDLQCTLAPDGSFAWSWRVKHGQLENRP

[6] = HEK293, comparative data, Tables 16A-16D, read-out: 293-NIK NF-kB-Luciferase (IC50)
[7] = HeLa, comparative data, Tables 16A-16D, read-out: NIK p52 Translocation (IC50)
[8] = HeLa, comparative data, Tables 16A-16D, read-out: NIK RelA Translocation (IC50)
[9] = HEK293, comparative data, Tables 16A-16D, read-out: 293-NIK TK Renilla Luciferase (IC50)
[10] = comparative data, Tables 16A-16D, read-out: NIK ADP (Ki)
[11] = HEK293, 293 cells with tetracycline-inducible NIK, 1 ug/mL doxycycline, 24 hours, read-out: inhibitory value (IC50) for 293-NIK NF-kB-Luciferase activity
[12] = HeLa cells, 100 ng/mL anti-lymphotoxin beta receptor antibody, 5 hours, read-out: inhibitory value (IC50) for NIK p52 Translocation Assay
[13] = HeLa cells, compounds 4.5 hours, 10 ng/mL TNF-α 30 minutes, read-out: inhibitory value (IC50) for NIK RelA Translocation Assay
[14] = HEK293, 293 cells, constitutive Renilla luciferase, 24 hours, read-out: inhibitory value (IC50) for 293-NIK TK Renilla Luciferase activity
[15] = purified NIK 0.2-1 nM, 10 uM ATP, fluorescence polarization, Morrison's quadratic equation, read-out: inhibitory value (Ki) for NIK

Row | SMILES | IC50 [1, 6] [nM] | IC50 [2, 7] [nM] | IC50 [3, 8] [nM] | IC50 [4, 9] [µM] | Ki [5, 10] [nM] | IC50 [1, 11] [nM] | IC50 [2, 12] [nM] | IC50 [3, 13] [nM] | IC50 [4, 14] [µM] | Ki [5, 15] [nM]
1 | CN(C)C(=O)c1nn(-c2ccnc(N)n2)c2cc(C#CC(C)(O)c3ncco3)ccc12 (stereo not drawn) [1-(2-aminopyrimidin-4-yl)-6-(3-hydroxy-3-(oxazol-2-yl)but-1-ynyl)-N,N-dimethyl-1H-indazole-3-carboxamide] | 51 | 346 | > 20000 | 0.583 | 0.2 | – | – | – | – | –
2 | CC(O)(C#Cc1ccc2ncn(-c3ccnc(N)n3)c2c1)c1nccs1 (stereo not drawn) [4-(1-(2-aminopyrimidin-4-yl)-1H-benzo[d]imidazol-6-yl)-2-(thiazol-2-yl)but-3-yn-2-ol] | 27 | 70 | > 20000 | 4.9 | 0.3 | – | – | – | – | –
3 | CC(O)(C#Cc1ccc2cnn(-c3ccnc(N)n3)c2c1)c1ncco1 (stereo not drawn) [4-(1-(2-aminopyrimidin-4-yl)-1H-indazol-6-yl)-2-(oxazol-2-yl)but-3-yn-2-ol] | 36 | 77 | > 20000 | 0.514 | 0.3 | – | – | – | – | –
4 | Cc1nn(-c2ccnc(N)n2)c2cc(C#CC(C)(O)c3nccs3)ccc12 (stereo not drawn) [4-(1-(2-aminopyrimidin-4-yl)-3-methyl-1H-indazol-6-yl)-2-(thiazol-2-yl)but-3-yn-2-ol] | 11 | 222 | > 20000 | 1.2 | 0.1 | – | – | – | – | –
5 | CC(O)(C#Cc1ccc2c(c1)N(c1ccnc(N)n1)CC2)c1nccs1 (stereo not drawn) [4-(1-(2-aminopyrimidin-4-yl)indolin-6-yl)-2-(thiazol-2-yl)but-3-yn-2-ol, reference compound] | 126 | 862 | > 20000 | 3.9 | 2.7 | – | – | – | – | –
6 | CC(O)(C#Cc1ccc2cnn(-c3nc(N)ncc3Cl)c2c1)c1nccs1 (stereo not drawn) [Example T1-6, 4-(1-(2-amino-5-chloro-pyrimidin-4-yl)-1H-indazol-6-yl)-2-(thiazol-2-yl)but-3-yn-2-ol] | – | – | – | – | – | 105 | 218 | 218 | 9.3 | 0.14
7 | CC(O)(C#Cc1ccc2ncn(-c3ccnc(N)n3)c2c1)c1nccs1 (stereo not drawn) [Example T1-7, 4-(1-(2-aminopyrimidin-4-yl)-1H-benzo[d]imidazol-6-yl)-2-(thiazol-2-yl)but-3-yn-2-ol] | – | – | – | – | – | 27 | 70 | 70 | 18.5 | 0.28
8 | Cc1nc2ccc(C#CC(C)(O)c3nccs3)cc2n1-c1ncnc(N)n1 (stereo not drawn) [Example T1-53, 4-(1-(4-amino-1,3,5-triazin-2-yl)-2-methyl-1H-benzo[d]imidazol-6-yl)-2-(thiazol-2-yl)but-3-yn-2-ol] | – | – | – | – | – | 62 | 479 | 447 | > 20 | 0.4
9 | Cc1nn(-c2ccnc(N)n2)c2cc(C#C[C@@](C)(O)c3nccs3)c(F)cc12 [Example T1-55, (R)-4-(1-(2-aminopyrimidin-4-yl)-5-fluoro-3-methyl-1H-indazol-6-yl)-2-(thiazol-2-yl) but-3-yn-2-ol] | – | – | – | – | – | 310 | 243 | 89 | 1.3 | 0.2
10 | Cc1cnc(C(C)(O)C#Cc2ccc3c(C)nn(-c4ccnc(N)n4)c3c2)s1 (stereo not drawn) [Example T1-56, 4-(1-(2-aminopyrimidin-4-yl)-3-methyl-1H-indazol-6-yl)-2-(5-methylthiazol-2-yl)but-3-yn-2-ol] | – | – | – | – | – | 104 | 747 | 479 | 15.6 | 1.6
11 | Cc1nc(C(C)(O)C#Cc2ccc3c(C)nn(-c4ccnc(N)n4)c3c2)no1 (stereo not drawn) [Example T1-57, 4-(1-(2-aminopyrimidin-4-yl)-3-methyl-1H-indazol-6-yl)-2-(5-methyl-1,2,4-oxadiazol-3-yl)but-3-yn-2-ol] | – | – | – | – | – | 91 | 1000 | 489 | 0.967 | 2
12 | Cc1cc(C(C)(O)C#Cc2ccc3c(C(=O)N(C)C)nn(-c4ccnc(N)n4)c3c2)no1 (stereo not drawn) [Example T1-59, 1-(2-aminopyrimidin-4-yl)-6-(3-hydroxy-3-(5-methyl-isoxazol-3-yl)but-1-ynyl)-N,N-dimethyl-1H-indazole-3-carboxamide] | – | – | – | – | – | 85 | 1900 | 747 | 11.2 | 0.49
